In patent US9060520B2, “Domestic animal parasite-repellent device” (priority 2007, dated 2015):

Test: Release kinetics at 38° C. in oven, by daily weighing (Examples 5-8, 10, 11)
Format: physicochemical

| Compound | release as of the fourth day (EVA object with DIAZINON and GIN3, for the remaining 70%) | amount released the first three days (EVA object with DIAZINON and GIN3 granules blended 40/60, FIG. 7) | peak of release of LINALOL relative to the bracelet, in absolute value (EVA/PEBAX matrix 30% LINALOL vs PVC bracelet 15% LINALOL, oven 38° C., FIG. 11) |
| --- | --- | --- | --- |
| CCOP(=S)(OCC)Oc1cc(C)nc(C(C)C)n1 [DIAZINON] | 1.30 % per day | 28% | – |
| C=CC(C)(O)CCC=C(C)C (stereo not drawn) [LINALOL] | – | – | 16 times |
